# Earlier results in paper PMC3346673 (Toxicological and environmental chemistry, 2012).
# Key:
# [1] = temporarily ref Risher & Amier, 2005; cited from earlier work
# [2] = administered by sc injection; cited from earlier work
Compound,reduction of blood mercury levels [1],predicted LD50 [2] [mg HgCl2 kg^−1]
"O=S(=O)(O)CC(S)CS (stereo not drawn) [DMPS, dimercaptopropanesulfonate]",about 20%,
"O=C(O)C(S)C(S)C(=O)O (stereo not drawn) [DMSA, dimercaptosuccinic acid]",about 20%,
"[Cl][Hg][Cl] [HgCl2, mercury chloride]",,14
